Reference: article PMC11994961, “In Vivo pharmacokinetic interactions of ribociclib with rivaroxaban and apixaban in rats: implications for increased drug exposure and dose adjustments” (Frontiers in Pharmacology, 2025)

What was measured:
[1] = system: Cyp3a1(CYP3A4) mRNA in the intestines; assay: qRT-PCR mRNA expression in rat intestine after ribociclib; type: in vivo; details: rats, ribociclib continuously for 8 days
Source text: (§1) qRT-PCR analysis was used to determine the mRNA levels of Cyp3a1(CYP3A4) in the liver and Abcb1a (P-gp), Cyp3a1(CYP3A4), Abcg2(BCRP) in the intestines. Total RNA was extracted from frozen liver and intestine samples using the TRNzol Universal reagent, following the manufacturer’s instructions. The Bio Tek Epoch (Bio Tek Instruments, Inc., Winooski, VT, United States) was used to quantify the purity and concentration of the total RNA, based on the ratio of the absorbance at 260 and 280 nm. The RNA samples, each containing 1 µg of material, were converted to complementary DNA (cDNA) using the FastKing RT Kit. The real-time PCR assays were performed using a two-step amplification protocol on the SLAN-96S Real-Time PCR system (Shanghai Hongshi Medical Technology Co., Ltd., Shanghai, China). […] was employed as an internal control, and the PCR cycling criteria were as follows: 95°C for 15 min, followed by 40 cycles of 95°C for 10 s and 60°C for 32 s.

[2] = system: Abcg2(BCRP) mRNA in the intestines; assay: as above; type: in vivo; details: rats, ribociclib continuously for 8 days
Source text: as §1

[3] = system: Abcb1a (P-gp) mRNA in the intestines; assay: as above; type: in vivo; details: rats, ribociclib continuously for 8 days
Source text: as §1

[4] = set-up: method as in Wang et al., 2023; details: rats, with almonertinib; ref Wang et al., 2023; cited from earlier work
[5] = set-up: method as in Hindley et al., 2023; details: ref Hindley et al., 2023; cited from earlier work
[6] = set-up: method as in Kvasnicka et al., 2017; details: ref Kvasnicka et al., 2017; cited from earlier work

Row | SMILES | inhibition rate of intestinal Cyp3a1 mRNA expression [1] [%] | inhibition rate of intestinal Abcg2 mRNA expression [2] [%] | mRNA expression of Abcb1a in the intestine [3] | increase in AUC [4] | increase in Cmax [4] | plasma protein binding [5] | time to maximum plasma concentration (Cmax) after administration [6] [h]
1 | CN(C)C(=O)c1cc2cnc(Nc3ccc(N4CCNCC4)cn3)nc2n1C1CCCC1 [RIBO, ribociclib] | 82.6 | 45.0 | no significant changes |  |  |  | 
2 | O=C(NC[C@H]1CN(c2ccc(N3CCOCC3=O)cc2)C(=O)O1)c1ccc(Cl)s1 [RIVA, rivaroxaban] |  |  |  | over three fold increases | over three fold increases | approximately 95% | 2 to 4
